Patent publication US4971965A, “Antibiotics TAN-1057” (Takeda Chemical Industries, Ltd., priority 1988, dated 1990)
In brackets after ≈: the same amount, converted by molar mass.

Tests used:
[1] = tested on: Treponema hyodicenterie DJ70PI; experiment: MIC against Spirochaeta (Table 3); details: 48 h
Mycoplasma pulmonis M-53 = experiment: MIC against Mycoplasma (Table 3); details: M53, 120 h
[2] = tested on: Staphylococcus aureus 308A-1; experiment: Therapeutic effect on infectious disease in mice (Table 5); assay type: in vivo
[3] = tested on: Clostridium perfringens PB6K; experiment: microbe, parasite or virus in culture; assay type: cell-based; details: 18 h
[4] = Acute toxicity in mice (Table 7); details: mouse, in vivo
[5] = tested on: Staphylococcus aureus N129; experiment: Antibacterial activity against clinically isolated S. aureus (agar dilution MIC, Table 2); assay type: cell-based; details: Staphylococcus aureus; strain N129; agar dilution; Mueller Hinton medium; 10^6 CFU/ml; read-out: MIC
Method: (§1) DMPPC: Methicillin, KM: Kanamycin, GM: Gentamycin, EM: Erythromycin (Note
(§2) Determined by the agar dilution method. Medium: Mueller Hinton medium
(§3) (Difco, USA) Inoculum Size: 10^6 CFU/ml, 37° C.

[6] = tested on: Staphylococcus aureus TS-65; experiment: as above; assay type: cell-based; details: Staphylococcus aureus, TS65; strain TS-65; agar dilution; Mueller Hinton medium; 10^6 CFU/ml; read-out: MIC
Method: as §1, §2, §3

[7] = tested on: Staphylococcus aureus N28; experiment: as above; assay type: cell-based; details: Staphylococcus aureus; strain N28; agar dilution; Mueller Hinton medium; 10^6 CFU/ml; read-out: MIC
Method: as §1, §2, §3

[8] = tested on: Staphylococcus aureus N83; experiment: as above; assay type: cell-based; details: Staphylococcus aureus; strain N83; agar dilution; Mueller Hinton medium; 10^6 CFU/ml; read-out: MIC
Method: as §1, §2, §3

[9] = tested on: Staphylococcus aureus N91; experiment: as above; assay type: cell-based; details: Staphylococcus aureus; strain N91; agar dilution; Mueller Hinton medium; 10^6 CFU/ml; read-out: MIC
Method: as §1, §2, §3

[10] = tested on: Staphylococcus aureus N176-6; experiment: as above; assay type: cell-based; details: Staphylococcus aureus, N1766; strain N176-6; agar dilution; Mueller Hinton medium; 10^6 CFU/ml; read-out: MIC
Method: as §1, §2, §3

[11] = tested on: Staphylococcus aureus N262; experiment: as above; assay type: cell-based; details: Staphylococcus aureus; strain N262; agar dilution; Mueller Hinton medium; 10^6 CFU/ml; read-out: MIC
Method: as §1, §2, §3

[12] = tested on: Staphylococcus aureus N237; experiment: as above; assay type: cell-based; details: Staphylococcus aureus; strain N237; agar dilution; Mueller Hinton medium; 10^6 CFU/ml; read-out: MIC
Method: as §1, §2, §3

[13] = tested on: Staphylococcus aureus N247; experiment: as above; assay type: cell-based; details: Staphylococcus aureus; strain N247; agar dilution; Mueller Hinton medium; 10^6 CFU/ml; read-out: MIC
Method: as §1, §2, §3

[14] = tested on: Staphylococcus aureus FDA 209P; experiment: as above; assay type: cell-based; details: Staphylococcus aureus, FDA209P; strain FDA 209P; agar dilution; Mueller Hinton medium; 10^6 CFU/ml; read-out: MIC
Method: as §1, §2, §3

[15] = tested on: Staphylococcus aureus N247-21; experiment: as above; assay type: cell-based; details: Staphylococcus aureus, N24721; strain N247-21; agar dilution; Mueller Hinton medium; 10^6 CFU/ml; read-out: MIC
Method: as §1, §2, §3

[16] = tested on: Staphylococcus aureus N176; experiment: as above; assay type: cell-based; details: Staphylococcus aureus; strain N176; agar dilution; Mueller Hinton medium; 10^6 CFU/ml; read-out: MIC
Method: as §1, §2, §3

[17] = tested on: Staphylococcus aureus N235; experiment: as above; assay type: cell-based; details: Staphylococcus aureus; strain N235; agar dilution; Mueller Hinton medium; 10^6 CFU/ml; read-out: MIC
Method: as §1, §2, §3

[18] = tested on: Staphylococcus aureus N267; experiment: as above; assay type: cell-based; details: Staphylococcus aureus; strain N267; agar dilution; Mueller Hinton medium; 10^6 CFU/ml; read-out: MIC
Method: as §1, §2, §3

[19] = tested on: Staphylococcus aureus N51; experiment: as above; assay type: cell-based; details: Staphylococcus aureus; strain N51; agar dilution; Mueller Hinton medium; 10^6 CFU/ml; read-out: MIC
Method: as §1, §2, §3

Staphylococcus aureus C4 = experiment: as above; assay type: cell-based; details: Staphylococcus aureus, C4
Method: as §1, §2, §3

[20] = tested on: Staphylococcus aureus N64; experiment: as above; assay type: cell-based; details: Staphylococcus aureus; strain N64; agar dilution; Mueller Hinton medium; 10^6 CFU/ml; read-out: MIC
Method: as §1, §2, §3

CN(C(=O)C[C@@H](N)CCCNC(=N)N)[C@H]1CNC(NC(N)=O)=NC1=O [TAN-1057A]
MIC [1]: 100 µg/mL (≈ 281 µM) | MIC (Mycoplasma pulmonis M-53): 0.39 µg/mL (≈ 1.1 µM) | ED50 ([2]; 308A1, ip infection, Oral): ~1 mg/kg | ED50 ([2]; 308A1, sc, ip infection, Subcutaneous): ~0.1 mg/kg | MIC [3]: 12.5 µg/mL (≈ 35.2 µM) | LD50 ([4]; Oral): > 400 mg/kg | LD50 ([4]; ip, Intraperitoneal): ~100 mg/kg | MIC [5]: 0.39 µg/mL (≈ 1.1 µM) | MIC [6]: 0.78 µg/mL (≈ 2.19 µM) | MIC [7]: 0.78 µg/mL (≈ 2.19 µM) | MIC [8]: 0.39 µg/mL (≈ 1.1 µM) | MIC [9]: 0.78 µg/mL (≈ 2.19 µM) | MIC [10]: 0.78 µg/mL (≈ 2.19 µM) | MIC [11]: 0.78 µg/mL (≈ 2.19 µM) | MIC [12]: 0.78 µg/mL (≈ 2.19 µM) | MIC [13]: 1.56 µg/mL (≈ 4.39 µM) | MIC [14]: 0.39 µg/mL (≈ 1.1 µM) | MIC [15]: 0.78 µg/mL (≈ 2.19 µM) | MIC [16]: 1.56 µg/mL (≈ 4.39 µM) | MIC [17]: 1.56 µg/mL (≈ 4.39 µM) | MIC [18]: ≤ 0.2 µg/mL | MIC [19]: 0.78 µg/mL (≈ 2.19 µM) | MIC (Staphylococcus aureus C4): 6.25 µg/mL (≈ 17.6 µM) | MIC [20]: 0.78 µg/mL (≈ 2.19 µM)
